Laboratory results as given in patent US20050124562A1, “Bis-quinazoline compounds for the treatment of bacterial infections” (priority 2003, published 2005).
≈ marks a conversion by molar mass, not a printed value.

These compounds were tested on S. aureus, E. faecalis, S. pyogenes and S. pneumoniae (assay: Broth microdilution MIC (NCCLS), gram-positive strains). Conditions: not given.
Format: cell-based
Protocol: Representative bis-quinazolines were tested for antibacterial activity using the […] microdilution method to determine their minimum inhibitory concentrations (MICs). All compounds were tested using standard methods in accordance with NCCLS guidelines (National Committee for Clinical Laboratory Standards. 2003. Methods for dilution antimicrobial susceptibility testing for bacteria that grow aerobically. Approved Standard M-7 A-6, NCCLS, Wayne, Pa.). The bacterial strains used in the susceptibility tests were obtained from the American Type Culture Collection (ATCC) and included resistant phenotypes such as oxacillin-resistant S. aureus (ORSA) and vancomycin-resistant enterococci (VRE). The minimum bactericidal concentrations (MBCs) were determined for selected organisms. The effect of protein binding on the antibacterial activity of representative bis-quinazolines were determined by conducting MIC tests in the presence of human serum.
`COc1cccc2c(O)nc(Nc3nc(C)c4ccc5c(c4n3)OCCO5)nc12` [Example 82, 8-Methoxy-2-(8-methyl-2,3-dihydro-1,4-dioxa-5,7-diaza-phenanthren-6-ylamino)-quinazolin-4-ol] gave an MIC of 0.06 to 16 µg/mL (≈ 0.153 to 40.9 µM).

Same assay, conditions: range against some strains of S. aureus, E. faecalis, S. pyogenes and S. pneumoniae; read-out: MIC
With `COc1cc(OC)c2nc(Nc3nc(O)c4cc(C)cc(C)c4n3)nc(C)c2c1.O=C(O)C(F)(F)F` [Example 75, 2-(6,8-Dimethoxy-4-methyl-quinazolin-2-ylamino)-6,8-dimethyl-quinazolin-4-ol trifluoroacetate salt] the MIC was 0.06 to 16 µg/mL. Compound `COc1cc2c(C)nc(Nc3nc(O)c4cccc(OC)c4n3)nc2cc1N.O=C(O)C(F)(F)F` [Example 76, 2-(6-methoxy-7-amino-4-methyl-quinazolin-2-ylamino)-8-methoxy-quinazolin-4-ol trifluoroacetate salt] has an MIC of 0.06 to 16 µg/mL. In the case of `COc1ccc2c(C)nc(Nc3nc(O)c4cccc(OC)c4n3)nc2c1OC.O=C(O)C(F)(F)F` [Example 78, 2-(7,8-Dimethoxy-4-methyl-quinazolin-2-ylamino)-8-methoxy-quinazolin-4-ol trifluoroacetate salt], the MIC is reported as 0.06 to 16 µg/mL. With `COCCOc1cc(OC)cc2c(C)nc(Nc3nc(O)c4cccc(OC)c4n3)nc12.O=C(O)C(F)(F)F` [Example 79, 8-Methoxy-2-[6-methoxy-8-(2-methoxy-ethoxy)-4-methyl-quinazolin-2-ylamino]-quinazolin-4-ol trifluoroacetate salt] the MIC was 0.06 to 16 µg/mL. In the case of `COCCOc1ccc2nc(Nc3nc(O)c4cccc(OC)c4n3)nc(C)c2c1.O=C(O)C(F)(F)F` [Example 80, 8-Methoxy-2-[6-(2-methoxy-ethoxy)-4-methyl-quinazolin-2-ylamino]-quinazolin-4-ol trifluoroacetate salt], the MIC is reported as 0.06 to 16 µg/mL. Work on `COCCOc1c(OC)ccc2c(C)nc(Nc3nc(O)c4cccc(OC)c4n3)nc12.O=C(O)C(F)(F)F` [Example 81, 8-Methoxy-2-[7-methoxy-8-(2-methoxy-ethoxy)-4-methyl-quinazolin-2-ylamino]-quinazolin-4-ol trifluoroacetate salt] yielded an MIC of 0.06 to 16 µg/mL. Compound `COc1cc(OC)c2nc(Nc3nc(O)c4c(OC)ccc(OC)c4n3)nc(C)c2c1.O=C(O)C(F)(F)F` [Example 100, 2-(6,8-Dimethoxy-4-methyl-quinazolin-2-ylamino)-5,8-dimethoxy-quinazolin-4-ol trifluoroacetate salt] has an MIC of 0.06 to 16 µg/mL. `COc1cc2c(C)nc(Nc3nc(O)c4cccc(OC)c4n3)nc2cc1O.O=C(O)C(F)(F)F` [Example 103, 2-(4-Hydroxy-8-methoxy-quinazolin-2-ylamino)-6-methoxy-4-methyl-quinazolin-7-ol trifluoroacetate salt] showed an MIC of 0.06 to 16 µg/mL. In the case of `COc1cc2nc(Nc3nc(O)c4cc(OCCCl)ccc4n3)nc(C)c2cc1OC.O=C(O)C(F)(F)F` [Example 105, 6-(2-Chloro-ethoxy)-2-(6,7-dimethoxy-4-methyl-quinazolin-2-ylamino)-quinazolin-4-ol trifluoroacetate salt], the MIC is reported as 0.06 to 16 µg/mL. For `COc1cc(OC)c2nc(Nc3nc(O)c4cc(OCCCl)ccc4n3)nc(C)c2c1.O=C(O)C(F)(F)F` [Example 107, 6-(2-Chloro-ethoxy)-2-(6,8-dimethoxy-4-methyl-quinazolin-2-ylamino)-quinazolin-4-ol trifluoroacetate salt], the MIC was 0.06 to 16 µg/mL. Compound `COc1cc2nc(Nc3nc(O)c4c5c(ccc4n3)OCO5)nc(C)c2cc1OC.O=C(O)C(F)(F)F` [Example 109, 7-(6,7-Dimethoxy-4-methyl-quinazolin-2-ylamino)-1,3-dioxa-6,8-diaza-cyclopenta[a]naphthalen-9-ol trifluoroacetate salt] has an MIC of 0.06 to 16 µg/mL. Compound `COc1cc(OC)c2nc(Nc3nc(O)c4c(OC(C)C)cccc4n3)nc(C)c2c1.O=C(O)C(F)(F)F` [Example 111, 2-(6,8-Dimethoxy-4-methyl-quinazolin-2-ylamino)-5-isopropoxy-quinazolin-4-ol trifluoroacetate salt] has an MIC of 0.06 to 16 µg/mL. `CCOc1cccc2nc(Nc3nc(C)c4cc(OC)cc(OC)c4n3)nc(O)c12.O=C(O)C(F)(F)F` [Example 112, 2-(6,8-Dimethoxy-4-methyl-quinazolin-2-ylamino)-5-ethoxy-quinazolin-4-ol trifluoroacetate salt] gave an MIC of 0.06 to 16 µg/mL. For `COc1cc2nc(Nc3nc(O)c4cc(N5CCOCC5)ccc4n3)nc(C)c2cc1OC.O=C(O)C(F)(F)F` [Example 114, 2-(6,7-Dimethoxy-4-methyl-quinazolin-2-ylamino)-6-morpholin-4-yl-quinazolin-4-ol trifluoroacetate salt], the MIC was 0.06 to 16 µg/mL. Compound `COc1cc2c(C)nc(Nc3nc(O)c4cccc(OC)c4n3)nc2c(OC)c1OC.O=C(O)C(F)(F)F` [Example 116, 8-Methoxy-2-(6,7,8-trimethoxy-4-methyl-quinazolin-2-ylamino)-quinazolin-4-ol trifluoroacetate salt] has an MIC of 0.06 to 16 µg/mL. `COc1cccc2c(O)nc(Nc3nc(C)c4ccc(F)c(OC)c4n3)nc12.O=C(O)C(F)(F)F` [Example 117, 2-(7-Fluoro-8-methoxy-4-methyl-quinazolin-2-ylamino)-8-methoxy-quinazolin-4-ol trifluoroacetate salt] was tested, and the MIC was 0.06 to 16 µg/mL. In the case of `COc1cc2c(C)nc(Nc3nc(O)c4cccc(F)c4n3)nc2c(OC)c1OC.O=C(O)C(F)(F)F` [Example 118, 8-Fluoro-2-(6,7,8-trimethoxy-4-methyl-quinazolin-2-ylamino)-quinazolin-4-ol trifluoroacetate salt], the MIC is reported as 0.06 to 16 µg/mL. Compound `COc1c(F)ccc2c(C)nc(Nc3nc(O)c4cccc(F)c4n3)nc12.O=C(O)C(F)(F)F` [Example 119, 8-Fluoro-2-(7-fluoro-8-methoxy-4-methyl-quinazolin-2-ylamino)-quinazolin-4-ol trifluoroacetate salt] has an MIC of 0.06 to 16 µg/mL. In the case of `COc1ccc2nc(Nc3nc(O)c4cc(N)cc(OC)c4n3)nc(C)c2c1.O=C(O)C(F)(F)F` [Example 123, 6-Amino-2-(6-methoxy-4-methyl-quinazolin-2-ylamino)-8-methoxy-quinazolin-4-ol trifluoroacetate salt], the MIC is reported as 0.06 to 16 µg/mL. `COc1cc(OC)c2nc(Nc3nc(O)c4cc(N)cc(OC)c4n3)nc(C)c2c1.O=C(O)C(F)(F)F` [Example 124, 6-Amino-2-(6,8-dimethoxy-4-methyl-quinazolin-2-ylamino)-8-methoxy-quinazolin-4-ol trifluoroacetate salt] was tested, and the MIC was 0.06 to 16 µg/mL. In the case of `COc1cc(OC)c2nc(Nc3nc(O)c4cc(N)cc(C)c4n3)nc(C)c2c1.O=C(O)C(F)(F)F` [Example 126, 6-Amino-2-(6,8-dimethoxy-4-methyl-quinazolin-2-ylamino)-8-methyl-quinazolin-4-ol trifluoroacetate salt], the MIC is reported as 0.06 to 16 µg/mL. `COc1cc2c(C)nc(Nc3nc(O)c4cccc(OC)c4n3)nc2cc1N(C)C.O=C(O)C(F)(F)F` [Example 127, 2-(7-Dimethylamino-6-methoxy-4-methyl-quinazolin-2-ylamino)-8-methoxy-quinazolin-4-ol trifluoroacetate salt] was tested, and the MIC was 0.06 to 16 µg/mL. For `COc1cc2nc(Nc3nc(O)c4c(N(C)C)cccc4n3)nc(C)c2cc1OC.O=C(O)C(F)(F)F` [Example 128, 2-(6,7-Dimethoxy-4-methyl-quinazolin-2-ylamino)-5-dimethylamino-quinazolin-4-ol trifluoroacetate salt], the MIC was 0.06 to 16 µg/mL. Compound `COc1cc(OC)c2nc(Nc3nc(O)c4c5c(ccc4n3)OCO5)nc(C)c2c1.O=C(O)C(F)(F)F` [Example 130, 7-(6,8-Dimethoxy-4-methyl-quinazolin-2-ylamino)-1,3-dioxa-6,8-diaza-cyclopenta[a]naphthalen-9-ol trifluoroacetate salt] has an MIC of 0.06 to 16 µg/mL.
